Results: PMC5809175 (Investigational new drugs, 2016)

How the values were obtained:
[1] = cited from earlier work
[2] = Phase I 3 + 3 dose escalation and expansion: DLT, MTD and RP2D; type: in vivo, human; details: extensive CYP2C19 metabolizers
clinical = details: human, in vivo
CYP2C19 and CYP3A4/5 = details: cited from earlier work
hepatocellular carcinoma = details: patients with hepatocellular carcinoma, p=0.04, cited from earlier work
CYP3A4 = details: cited from earlier work

Row | SMILES | RP2D in CYP2C19 poor metabolizers [1] | MTD and RP2D, tivantinib ([2]; oral, in combination with temsirolimus) | Dose adjusted AUC0–12, geometric mean (clinical) | Dose adjusted Cmax, geometric mean (clinical) | metabolizing enzymes (CYP2C19 and CYP3A4/5) | time to progression, HR vs placebo (hepatocellular carcinoma; 90% CI 0.43–0.94) | time to progression (hepatocellular carcinoma; placebo 1.4 months) | metabolizing enzymes (CYP3A4) | MTD and RP2D, temsirolimus ([2]; intravenous, in combination with tivantinib) | AUC0–∞, ratio (%) geometric means (clinical) | Cmax, ratio (%) geometric means (clinical) | AUC(0-inf) (clinical; AUC0–∞, geometric mean) | Cmax (clinical; Cmax, geometric mean)
1 | O=C1NC(=O)[C@@H](c2cn3c4c(cccc24)CCC3)[C@@H]1c1c[nH]c2ccccc12 [tivantinib] | 240 mg twice daily | 240 mg twice daily | 67.78 ng·h/mL/mg | 9.27 ng/mL/mg | metabolized primarily by CYP2C19 and partially by CYP3A4/5 | 0.64 | 1.6 months |  |  |  |  |  | 
2 | CO[C@H]1C[C@@H]2CC[C@@H](C)[C@@](O)(O2)C(=O)C(=O)N2CCCC[C@H]2C(=O)O[C@H]([C@H](C)C[C@@H]2CC[C@@H](OC(=O)C(C)(CO)CO)[C@H](OC)C2)CC(=O)[C@H](C)/C=C(\C)[C@@H](O)[C@@H](OC)C(=O)[C@H](C)C[C@H](C)/C=C/C=C/C=C/1C [temsirolimus] |  |  |  |  |  |  |  | primarily metabolized by CYP3A4 | 20 mg weekly | 1.09% | 0.94% | 1340 ng·h/mL | 363 ng/mL
